Measurements published in paper PMC8296573, “Synthesis and Biological Evaluation of Fingolimod Derivatives as Antibacterial Agents” (ACS Omega, 2021).
Converted amounts (≈) assume the structure as drawn. Read-outs that look alike come from different tables or passages of the source.

Legend:
S. aureus ATCC 12598 = assay: Antibacterial activity, pre-exposure; format: cell-based, Staphylococcus aureus
Outline: (§1)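 Compounds in DMSO were plated before bacteria were added (pre-exposure) and incubated 18 h aerobically at 37 °C with shaking. Planktonic cells were read by OD and resazurin fluorescence (20 μM final; ex 560/em 590 nm). Biofilms were read by resazurin, then crystal violet (A595) for total biomass.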

P. aeruginosa ATCC 9027 = assay: Antibacterial activity, pre-exposure; format: cell-based, Pseudomonas aeruginosa; conditions: for Average inhibition %, biofilms viability / Average inhibition %, planktonic cells viability / inhibition at 50 µM / inhibition at 100 µM / inhibition at 150 µM / inhibition at 200 µM: P. aeruginosa ATCC 9027, pre-exposure, ± SD; for MIC / inhibition at 50 µM / inhibition at 100 µM / inhibition at 150 µM / inhibition at 200 µM: Pseudomonas aeruginosa; for inhibition at 50 µM / inhibition at 100 µM / inhibition at 150 µM / inhibition at 200 µM: ATCC9027
Outline: as §1

S. aureus ATCC 25923 = assay: Antibacterial activity, post-exposure on preformed 18-h-old biofilms; format: cell-based, Staphylococcus aureus; conditions: for Average inhibition %, biofilms viability / Average inhibition %, planktonic cells viability / inhibition at 25 µM / inhibition at 50 µM / inhibition at 100 µM / inhibition at 200 µM: ± SD; for inhibition at 25 µM / inhibition at 50 µM / inhibition at 100 µM / inhibition at 200 µM: Staphylococcus aureus; for inhibition at 25 µM: ATCC25923, 25 µM; for inhibition at 50 µM: ATCC25923, 50 µM; for inhibition at 100 µM: ATCC25923, 100 µM; for inhibition at 200 µM: ATCC25923, 200 µM
Outline: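 Biofilms grown 18 h without compound, medium then replaced and compound added for a further 24 h. Planktonic OD and resazurin (20 μM final) fluorescence (ex 560/em 590 nm) read; washed biofilms stained with 20 μM resazurin 30 min at 37 °C, then ethanol-fixed and crystal violet-stained, absorbance 595 nm.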

[1] = Staphylococcus aureus, ATCC12598, S. aureus ATCC 12598, pre-exposure, ± SD, read-out: Average inhibition %, biofilms biomass
[2] = Staphylococcus aureus, ATCC12598, S. aureus ATCC 12598, pre-exposure, ± SD, read-out: Average inhibition %, planktonic cells turbidity
[3] = read-out: Average inhibition %, biofilms biomass
[4] = read-out: Average inhibition %, planktonic cells turbidity

CCCCCCCCc1ccc2ccc(CC(N)(CO)CO)nc2c1 [Compound 82, 2-Amino-2-[(7-octylquinolin-2-yl)methyl]propane-1,3-diol]
Average inhibition %, planktonic cells viability (S. aureus ATCC 12598; S. aureus ATCC 12598, pre-exposure, 25 µM, ± SD): 99.6 ± 0.1% | inhibition at 5 µM (S. aureus ATCC 12598; [1]): 26.3 ± 11.6% | inhibition at 5 µM (S. aureus ATCC 12598; [2]): 20.6 ± 8.5% | inhibition at 10 µM (S. aureus ATCC 12598; [1]): 94.4 ± 1.7% | inhibition at 10 µM (S. aureus ATCC 12598; [2]): 99.6 ± 0.1% | inhibition at 15 µM (S. aureus ATCC 12598; [1]): 97.1 ± 1.1% | inhibition at 15 µM (S. aureus ATCC 12598; [2]): 99.7% | inhibition at 25 µM (S. aureus ATCC 12598; Staphylococcus aureus, ATCC12598, S. aureus ATCC 12598, pre-exposure, 25 µM, ± SD, read-out: Average inhibition %, biofilms biomass): 94.6 ± 1.4% | inhibition at 25 µM (S. aureus ATCC 12598; Staphylococcus aureus, ATCC12598, S. aureus ATCC 12598, pre-exposure, 25 µM, ± SD, read-out: Average inhibition %, planktonic cells turbidity): 99.4 ± 0.2% | MIC (S. aureus ATCC 12598; Staphylococcus aureus, ATCC12598, pre-exposure, 18 h, read-out: MIC S. aureus ATCC 12598): 10 µM (≈ 3.44 µg/mL) | Average inhibition %, biofilms viability (P. aeruginosa ATCC 9027; 50 µM): 6.4 ± 5.7% | Average inhibition %, planktonic cells viability (P. aeruginosa ATCC 9027; 50 µM): 53.2 ± 3.8% | Average inhibition %, biofilms viability (P. aeruginosa ATCC 9027; 100 µM): 8.3 ± 8.6% | Average inhibition %, planktonic cells viability (P. aeruginosa ATCC 9027; 100 µM): 48.1 ± 18.4% | Average inhibition %, biofilms viability (P. aeruginosa ATCC 9027; 150 µM): 3.5 ± 6% | Average inhibition %, planktonic cells viability (P. aeruginosa ATCC 9027; 150 µM): 57.4 ± 19% | Average inhibition %, biofilms viability (P. aeruginosa ATCC 9027; 200 µM): 31.5 ± 49.1% | Average inhibition %, planktonic cells viability (P. aeruginosa ATCC 9027; 200 µM): 51.6 ± 41.5% | MIC (P. aeruginosa ATCC 9027; ATCC9027, pre-exposure, Inactive = no activity up to 200 μM, > = some inhibition but no MIC reached, read-out: MIC P. aeruginosa ATCC 9027): > 200 µM | MIC (P. aeruginosa ATCC 9027; ATCC9027, supplementary molecular formula strings sheet, read-out: MIC (P. aeruginosa)): > 200 µM | inhibition at 50 µM (P. aeruginosa ATCC 9027; 50 µM, read-out: Average inhibition %, biofilms biomass): 7.6 ± 7% | inhibition at 50 µM (P. aeruginosa ATCC 9027; 50 µM, read-out: Average inhibition %, planktonic cells turbidity): 46.8 ± 2.3% | inhibition at 100 µM (P. aeruginosa ATCC 9027; 100 µM, read-out: Average inhibition %, biofilms biomass): 1.8 ± 2.7% | inhibition at 100 µM (P. aeruginosa ATCC 9027; 100 µM, read-out: Average inhibition %, planktonic cells turbidity): 51.6 ± 8.5% | inhibition at 150 µM (P. aeruginosa ATCC 9027; 150 µM, read-out: Average inhibition %, biofilms biomass): 2.7 ± 4.8% | inhibition at 150 µM (P. aeruginosa ATCC 9027; 150 µM, read-out: Average inhibition %, planktonic cells turbidity): 61.3 ± 19.9% | inhibition at 200 µM (P. aeruginosa ATCC 9027; 200 µM, read-out: Average inhibition %, biofilms biomass): 27.5 ± 24.4% | inhibition at 200 µM (P. aeruginosa ATCC 9027; 200 µM, read-out: Average inhibition %, planktonic cells turbidity): 75.7 ± 14.1% | Average inhibition %, biofilms viability (S. aureus ATCC 25923; 25 µM): 11.8 ± 8.4% | Average inhibition %, planktonic cells viability (S. aureus ATCC 25923; 25 µM): 0 ± 0% | Average inhibition %, biofilms viability (S. aureus ATCC 25923; 50 µM): 27.8 ± 14.6% | Average inhibition %, planktonic cells viability (S. aureus ATCC 25923; 50 µM): 17.9 ± 25.5% | Inhibition of viability and total biomass of preformed biofilms (S. aureus ATCC 25923; 100 μM): at least 70% | Average inhibition %, biofilms viability (S. aureus ATCC 25923; 100 µM): 81.5 ± 32.8% | Average inhibition %, planktonic cells viability (S. aureus ATCC 25923; 100 µM): 94.5 ± 10% | Average inhibition %, biofilms viability (S. aureus ATCC 25923; 200 µM): 100.2 ± 0.2% | Average inhibition %, planktonic cells viability (S. aureus ATCC 25923; 200 µM): 100.5 ± 0.5% | inhibition at 25 µM (S. aureus ATCC 25923; [3]): 45.6 ± 7.5% | inhibition at 25 µM (S. aureus ATCC 25923; [4]): 14.1 ± 11.7% | inhibition at 50 µM (S. aureus ATCC 25923; [3]): 51.6 ± 10.3% | inhibition at 50 µM (S. aureus ATCC 25923; [4]): 34.6 ± 28.4% | inhibition at 100 µM (S. aureus ATCC 25923; [3]): 79.6 ± 17% | inhibition at 100 µM (S. aureus ATCC 25923; [4]): 79.1 ± 11.5% | inhibition at 200 µM (S. aureus ATCC 25923; [3]): 79.8 ± 5.7% | inhibition at 200 µM (S. aureus ATCC 25923; [4]): 77.9 ± 10%
